Target: PrP^res (Homo sapiens, UniProt P04156)
Type: cell-based

SMILES: COC[C@H]1O[C@@H]2O[C@H]3[C@H](O)[C@@H](OC)[C@@H](O[C@H]4[C@H](O)[C@@H](OC)[C@@H](O[C@H]5[C@H](O)[C@@H](OC)[C@@H](O[C@H]6[C@H](O)[C@@H](OC)[C@@H](O[C@H]7[C@H](O)[C@@H](OC)[C@@H](O[C@H]8[C@H](O)[C@@H](OC)[C@@H](O[C@H]1[C@H](O)[C@H]2OC)O[C@@H]8COC)O[C@@H]7COC)O[C@@H]6COC)O[C@@H]5COC)O[C@@H]4COC)O[C@@H]3COC [DIMEB, heptakis(2,6-O-dimethyl)beta-cyclodextrin]
- PrP^Sc accumulation: significantly decreased

— EP3603649A1 (priority 2018, dated 2020)
